Columns and labels:
[1] = system: STZ-diabetic rats; test: Sorbitol accumulation in red blood cell, lenses and sciatic nerves of STZ-diabetic rats; type: in vivo, SD rats; conditions: 2 weeks
Protocol: Diabetes mellitus was induced in male SD rats, weighing 220-250 g, by a single intraperitoneal injection of strptozotocin (Sigma chemical CO., St. Louis, Mo., USA) dissolved in phosphate buffered saline acidified to pH 4.5 with 0.05 M citric acid (66 mg/kg body wt). Control rats were injected with the vehicle only. The animals were fed standard Lab. Chows and water ad. Lib. throughout the experiments. Two weeks later, the diabetes-induced rats were used in following experiments. […] The extract was suspended in saline containing 0.5% carboxymethyl cellulose. The animals were then sacrificed under ether anesthesia. The contents of sorbitol in the red blood cell, sciatic nerves, and lenses were determined enzymatically. Sorbitol was measured by a modification of the enzymatic assay procedure described in the literature (Clements, R. S. et al.; Science, 166(908), pp1007-8, 1969). 0.5 ml of protein-free filtrate of tissues was added to a reaction mixture consisting of 1.0 ml of 0.05 M glycine buffer adjusted to pH 9.4 containing 0.2 mM nicotinamide adenine dinucleotide (NAD) and 0.64 U of sorbitol dehydrogenase. Blanks untreated with the filtrate, NAD, or sorbitol dehydrogenase, were routinely run simultaneously. The relative fluorescence due to NADH was measured with an excitation wavelength of 366 nm and an emission wavelength of 452 nm. Epalrestat used in the present invention is a conventional therapeutic drug for diabetic complications.

[2] = system: STZ-diabetic rats; test: Plasma glucose content in STZ-diabetic rats after 2 weeks of oral dosing; type: in vivo, Sprague-Dawley (SD) rats; conditions: 200 mg/kg/day intragastric
Protocol: All experiments were performed on Sprague-Dawley (SD) rats aged 10 weeks, weighed 200-250 g and purchased from the Seoul national university. The animals were acclimatized for 1-2 weeks before being used for the experiments. Standard pelleted diet and water were given ad libitum. Animals were maintained under constant 12 hours light and dark cycle and an environmental temperature ranging from 21 to 23° C. Diabetes mellitus was induced in male SD rats, weighing 220-250 g, by a single intraperitoneal injection of strptozotocin (Sigma chemical CO., St. Louis, Mo., USA) dissolved in phosphate buffered saline acidified to pH 4.5 with 0.05 M citric acid (66 mg/kg body wt). Control rats were injected with the vehicle only. The animals were fed standard Lab. Chows and water ad. Lib. throughout the experiments. Two weeks later, the diabetes-induced rats were used in following experiments. […] extracts were suspended in saline containing 0.5% carboxymethyl cellulose. The animals were then sacrificed under ether anesthesia and their blood samples were collected. Plasma glucose levels were determined by using a commercial kit.

[3] = biological target: T1, rat lenses aldose reductase (Rattus norvegicus, UniProt P07943); test: Rat lens aldose reductase inhibition (NADPH decrease at 340 nm, DL-glyceraldehyde substrate); type: biochemical, Sprague-Dawley rats
T1 construct: The supernatant fraction of the rat lens homogenate was prepared according to the procedure described in the literature; from tissue; host or cells: lenses of Sprague-Dawley rats
Protocol: Crude aldose reductase was prepared as follows: rat lenses were removed from Sprague-Dawley rats weighing 250˜280 g and frozen until use. […] Partially purified enzyme having its a specific activity of 6.5 U/mg was routinely used to test enzyme inhibition. The partially purified material was separated into 1.0 ml of aliquots and stored at −40° C.
Each 1.0 ml of cuvette containing equal units of enzyme, 0.1M sodium phosphate buffer (pH 6.2), 0.3 mM NADPH with or without 10 mM substrate and inhibitor was prepared.

[4] = system: normal rats; test: Oral glucose tolerance test in normal rats; type: in vivo, SD rats; conditions: extracts 300 mg/kg
Protocol: Prior to an oral glucose tolerance test, rats were fasted for 16 hours. And then saline for control group, 250 mg/kg of metformin, one of the biguanides drug for comparison group and each 300 mg/kg of Elfvingia applanata extracts, respectively, was orally administered to each group consisting of 10 rats. Thirty minutes later, 3 g/kg of glucose was orally administered to each rat with a feeding syringe. Blood samples were collected from carotid artery at (just before the oral administration of glucose), 60, 120, and 180 mins after glucose load for glucose assay.

CC(/C=C1\SC(=S)N(CC(=O)O)C1=O)=C\c1ccccc1 [Epalrestat]
Sorbitol in the lenses ([1]; lenses, 200 mg/kg/day intragastric): 0.38 ± 0.05 nmol/mg dry wt.
Inhibition (%) of sorbitol accumulation in the lenses ([1]; lenses, 200 mg/kg/day): 52.5%
Sorbitol in the red blood cell ([1]; red blood cell, 200 mg/kg/day intragastric): 108.7 ± 11.6 nmol/g Hg
Inhibition (%) of sorbitol accumulation in the red blood cell ([1]; red blood cell, 200 mg/kg/day): 75.0%
Sorbitol in the sciatic nerves ([1]; sciatic nerves, 200 mg/kg/day intragastric): 4.3 ± 0.5 nmol/mg dry wt.
Inhibition (%) of sorbitol accumulation in the sciatic nerves ([1]; sciatic nerves, 200 mg/kg/day): 58.2%
Plasma glucose [2]: 3.9 ± 0.2 g/L
Inhibition (%) of plasma glucose ([2]; vs control): 31.6%
inhibition at 0.001 µg/mL ([3]; concentration 0.001 μg/ml): 35%
inhibition at 0.01 µg/mL ([3]; concentration 0.01 μg/ml): 60.2%
inhibition at 0.1 µg/mL ([3]; concentration 0.1 μg/ml): 100%

CN(C)C(=N)N=C(N)N [Metformin, metformin]
Glucose, 1 hr ([4]; 1 hr after 3 g/kg oral glucose load, metformin 250 mg/kg oral): 140.1 ± 7.0 mg/dL
Glucose, 2hr ([4]; 2 hr after 3 g/kg oral glucose load, metformin 250 mg/kg oral): 122.8 ± 1.4 mg/dL
Glucose, 3hr ([4]; 3 hr after 3 g/kg oral glucose load, metformin 250 mg/kg oral): 139.7 ± 4.5 mg/dL
Glucose, 0 hr ([4]; just before 3 g/kg oral glucose load, metformin 250 mg/kg oral 30 min earlier): 54.5 ± 2.2 mg/dL

O=C(O)CC1(CC(=O)O)CCCC1 [TMG, TetraMethylene Glutaric acid]
Inhibition (%) of aldose reductase ([3]; concentration 0.1 μg/ml): 40.6%
Inhibition (%) of aldose reductase ([3]; concentration 1 μg/ml): 51.3%
Inhibition (%) of aldose reductase ([3]; concentration 10 μg/ml): 76.4%
IC50 ([3]; rat lens enzyme, pH 6.2, unit (μM) printed beside the value): 0.46 µM

From patent US7192591B2, “Pharmaceutical composition comprising an extract of Elfvingia applanata for the prevention and the treatment of diabetes and diabetic complications” (priority 2002, dated 2007)
